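Five compound concentrations were applied to cells in 96-well plates for 48 hours; endpoints were derived by simple linear interpolation of the resulting dose-response curve. The concentration for 50% growth inhibition is given as GI50.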 Activity calls are given as the source filed them. No stated cut-off is given here; in the data, active = GI50 up to about 1.1 µM and inactive = higher.
How the values were obtained:
Experiment in all cases: growth of human tumour cells (NCI), 48 h
HL-60 = tested on: HL-60
OVCAR-4 = tested on: OVCAR-4
SNB-19 = tested on: SNB-19
HOP-92 = tested on: HOP-92
NCI-H522 = tested on: NCI-H522
HCC 2998 = tested on: HCC 2998
SF-268 = tested on: SF-268
SK-OV-3 = tested on: SK-OV-3
786-0 = tested on: 786-0
RPMI-8226 = tested on: RPMI-8226
LOX IMVI = tested on: LOX IMVI
CAKI-1 = tested on: CAKI-1
UACC-257 = tested on: UACC-257
OVCAR-3 = tested on: OVCAR-3
SK-MEL-5 = tested on: SK-MEL-5
NCI-H460 = tested on: NCI-H460
SW-620 = tested on: SW-620

Measured: GI50

C/C(CC(=O)NC1=CC=C(NC(=O)C/C(C)=N\Nc2ccccc2)CC1)=N/Nc1ccccc1
inactive: HL-60 50.1 µM | OVCAR-4 > 100 µM | SNB-19 > 100 µM | HOP-92 > 100 µM | NCI-H522 72.6 µM | HCC 2998 > 100 µM | SF-268 > 100 µM | SK-OV-3 > 100 µM | 786-0 > 100 µM | RPMI-8226 > 100 µM | LOX IMVI 70.8 µM | CAKI-1 > 100 µM | UACC-257 > 100 µM | OVCAR-3 > 100 µM | SK-MEL-5 > 100 µM | NCI-H460 > 100 µM

Nc1nncc2c1c(Br)cn2C1OC(CO)C(O)C1O (stereo not given)
inactive: HL-60 3.73 µM | OVCAR-4 > 52.7 µM | SNB-19 64.3 µM | HOP-92 8.63 µM | NCI-H522 31.3 µM | HCC 2998 5.27 µM | SF-268 35.1 µM | SK-OV-3 > 96.6 µM | 786-0 21.1 µM | RPMI-8226 10.2 µM | LOX IMVI 5.74 µM | SW-620 5.69 µM | CAKI-1 3.21 µM | UACC-257 > 100 µM | OVCAR-3 6.62 µM | SK-MEL-5 > 100 µM | NCI-H460 28.8 µM

O=C(/C=C/c1ccccc1)NC1C=Nc2ccc([N+](=O)[O-])cc2NC1=O (stereo not given)
inactive: HL-60 25.3 µM | OVCAR-4 > 100 µM | SNB-19 > 100 µM | HOP-92 > 100 µM | NCI-H522 6.01 µM | HCC 2998 34.8 µM | SF-268 > 100 µM | SK-OV-3 > 100 µM | 786-0 > 100 µM | LOX IMVI 22.7 µM | SW-620 > 100 µM | CAKI-1 > 100 µM | UACC-257 > 100 µM | OVCAR-3 80.5 µM | SK-MEL-5 > 100 µM | NCI-H460 > 100 µM

O=C(CCCCCCCCC(=O)OCC1OC(n2cnc3c(=O)[nH]cnc32)C(O)C1O)OCC1OC(n2cnc3c(=O)[nH]cnc32)C(O)C1O (stereo not given)
inactive: HL-60 > 100 µM | OVCAR-4 > 100 µM | SNB-19 > 100 µM | HOP-92 > 100 µM | NCI-H522 > 100 µM | HCC 2998 > 100 µM | SF-268 > 100 µM | SK-OV-3 > 100 µM | 786-0 > 100 µM | RPMI-8226 > 100 µM | LOX IMVI > 100 µM | SW-620 > 100 µM | CAKI-1 > 100 µM | UACC-257 > 100 µM | OVCAR-3 > 100 µM | SK-MEL-5 > 100 µM | NCI-H460 > 100 µM

C=C[C@]1(C)CCC2=C(CCC3C2(C)CCC[C@]3(C)CO)C1 (stereo not given in full)
inactive: HL-60 27.9 µM | OVCAR-4 > 100 µM | SNB-19 > 100 µM | HOP-92 43.1 µM | NCI-H522 23 µM | HCC 2998 43.7 µM | SF-268 33.4 µM | SK-OV-3 > 100 µM | 786-0 59.8 µM | RPMI-8226 27.2 µM | LOX IMVI 27.7 µM | SW-620 63.8 µM | CAKI-1 76 µM | UACC-257 51.5 µM | OVCAR-3 40 µM | SK-MEL-5 67.1 µM | NCI-H460 35.1 µM

N#Cc1nc(C2OC(COC(=O)c3ccccc3)C(OC(=O)c3ccccc3)C2OC(=O)c2ccccc2)oc1N (stereo not given)
inactive: HL-60 7.03 µM | OVCAR-4 10.8 µM | SNB-19 > 100 µM | HOP-92 96.4 µM | NCI-H522 5.33 µM | HCC 2998 35.6 µM | SF-268 15 µM | SK-OV-3 > 100 µM | 786-0 27 µM | RPMI-8226 2.1 µM | LOX IMVI 67.1 µM | SW-620 12.1 µM | CAKI-1 26.5 µM | UACC-257 20.7 µM | OVCAR-3 34.1 µM | SK-MEL-5 14.5 µM | NCI-H460 76.4 µM

COc1cc2c(cc1OC)C1Cc3cc(OC)c(OC)cc3N1CC2 (stereo not given)
inactive: HL-60 20.9 µM | OVCAR-4 18.9 µM | SNB-19 36.2 µM | HOP-92 33 µM | NCI-H522 12.2 µM | HCC 2998 79.4 µM | SF-268 35 µM | SK-OV-3 31.6 µM | 786-0 17.7 µM | RPMI-8226 28.8 µM | SW-620 29.9 µM | CAKI-1 21.9 µM | UACC-257 42 µM | OVCAR-3 31.9 µM | NCI-H460 40.2 µM

Cc1c(-c2ccccc2)c(=O)oc2ccc(Cl)cc12
inactive: HL-60 > 100 µM | OVCAR-4 53.3 µM | SNB-19 63 µM | HOP-92 32.7 µM | NCI-H522 33.7 µM | HCC 2998 > 100 µM | SF-268 90.2 µM | SK-OV-3 34.4 µM | 786-0 36.5 µM | RPMI-8226 > 100 µM | LOX IMVI > 100 µM | SW-620 > 100 µM | UACC-257 8.55 µM | OVCAR-3 > 100 µM | SK-MEL-5 40.3 µM | NCI-H460 70.5 µM

COc1ccc(C(c2ccccc2C(=O)O)c2ccc(OC)c3ccccc23)c2ccccc12
inactive: HL-60 7.33 µM | OVCAR-4 10.7 µM | SNB-19 11.2 µM | HOP-92 33.5 µM | NCI-H522 12.6 µM | HCC 2998 6.49 µM | SF-268 > 10 µM | SK-OV-3 23.6 µM | 786-0 15.8 µM | RPMI-8226 3.61 µM | LOX IMVI 18 µM | SW-620 14.8 µM | CAKI-1 28.8 µM | UACC-257 4.85 µM | OVCAR-3 13.5 µM | SK-MEL-5 15.9 µM

CC1(C)C2CCC3(C2)CS(=O)(=O)N2OC231 (stereo not given)
inactive: HL-60 15.4 µM | SNB-19 34.4 µM | HOP-92 10.8 µM | NCI-H522 13.8 µM | HCC 2998 38.1 µM | SF-268 26.4 µM | SK-OV-3 49.7 µM | 786-0 16.9 µM | RPMI-8226 29.5 µM | LOX IMVI 16.3 µM | SW-620 16.5 µM | CAKI-1 16 µM | UACC-257 17.1 µM | OVCAR-3 19.1 µM | SK-MEL-5 21 µM | NCI-H460 19.5 µM

N#CCc1ccc(C(C#N)/C(CCCC(=O)Nc2cccc([N+](=O)[O-])c2)=N\NC(=O)NN)cc1 (stereo not given)
inactive: HL-60 > 100 µM | OVCAR-4 > 100 µM | SNB-19 > 100 µM | HOP-92 > 100 µM | NCI-H522 > 100 µM | HCC 2998 > 100 µM | SF-268 > 100 µM | SK-OV-3 > 100 µM | 786-0 > 100 µM | RPMI-8226 > 100 µM | SW-620 > 100 µM | CAKI-1 > 100 µM | UACC-257 > 100 µM | OVCAR-3 > 100 µM | SK-MEL-5 > 100 µM | NCI-H460 > 100 µM

CC(=O)c1cccc(NC(=O)/C(=N\NC(C)(C)C)c2c(O)c3ccccc3oc2=O)c1
inactive: HL-60 > 100 µM | OVCAR-4 > 100 µM | SNB-19 > 100 µM | HOP-92 > 100 µM | NCI-H522 > 100 µM | HCC 2998 > 100 µM | SF-268 > 100 µM | SK-OV-3 > 100 µM | 786-0 > 100 µM | LOX IMVI > 100 µM | SW-620 > 100 µM | CAKI-1 > 100 µM | UACC-257 > 100 µM | OVCAR-3 > 100 µM | SK-MEL-5 > 100 µM | NCI-H460 > 100 µM

From ChEMBL document CHEMBL1201862, “PubChem BioAssay data set” (2004)
